Results: ChEMBL document CHEMBL5375992, “Design and Development of IKZF2 and CK1α Dual Degraders” (J Med Chem, 2023)
In brackets after ≈: the same amount, converted by molar mass. Activity calls are given as the source filed them. No cut-off for these calls is given here.

Tests used:
[1] = Metabolic stability in mouse liver microsomes assessed as half life preincubated with NADPH and UDPGA for 5 mins followed by compound addition and measured upto 60 mins by LC-MS/MS analysis; format: ADME, Microsome
[2] = Metabolic stability in human liver microsomes assessed as half life preincubated with NADPH and UDPGA for 5 mins followed by compound addition and measured upto 60 mins by LC-MS/MS analysis; format: ADME, Microsome
[3] = biological target: T1, Protein cereblon/Eukaryotic peptide chain release factor GTP-binding subunit ERF3A (Homo sapiens) (UniProt Q96SW2+P15170); assay: Protac activity at CRBN/GSPT1 (unknown origin) transfected in HEK293T cells at 100 nM incubated for 24 hrs by flow cytometry analysis relative to control; format: cell-based
T1 sequence (P15170 whole entry, looked up): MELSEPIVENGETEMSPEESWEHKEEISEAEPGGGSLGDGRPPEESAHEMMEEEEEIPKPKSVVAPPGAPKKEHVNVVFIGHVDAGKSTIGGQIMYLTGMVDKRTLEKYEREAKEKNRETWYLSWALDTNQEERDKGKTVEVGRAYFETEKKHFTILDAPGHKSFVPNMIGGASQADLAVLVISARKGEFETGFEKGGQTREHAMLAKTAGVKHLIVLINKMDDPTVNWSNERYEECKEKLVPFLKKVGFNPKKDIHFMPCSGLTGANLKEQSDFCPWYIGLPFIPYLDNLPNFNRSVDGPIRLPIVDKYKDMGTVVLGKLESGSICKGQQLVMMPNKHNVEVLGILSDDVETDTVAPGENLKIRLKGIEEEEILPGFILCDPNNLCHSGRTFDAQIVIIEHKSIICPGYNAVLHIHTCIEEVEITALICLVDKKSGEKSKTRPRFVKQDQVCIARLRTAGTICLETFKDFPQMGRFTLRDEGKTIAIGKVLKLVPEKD
T1 sequence (Q96SW2 whole entry, looked up): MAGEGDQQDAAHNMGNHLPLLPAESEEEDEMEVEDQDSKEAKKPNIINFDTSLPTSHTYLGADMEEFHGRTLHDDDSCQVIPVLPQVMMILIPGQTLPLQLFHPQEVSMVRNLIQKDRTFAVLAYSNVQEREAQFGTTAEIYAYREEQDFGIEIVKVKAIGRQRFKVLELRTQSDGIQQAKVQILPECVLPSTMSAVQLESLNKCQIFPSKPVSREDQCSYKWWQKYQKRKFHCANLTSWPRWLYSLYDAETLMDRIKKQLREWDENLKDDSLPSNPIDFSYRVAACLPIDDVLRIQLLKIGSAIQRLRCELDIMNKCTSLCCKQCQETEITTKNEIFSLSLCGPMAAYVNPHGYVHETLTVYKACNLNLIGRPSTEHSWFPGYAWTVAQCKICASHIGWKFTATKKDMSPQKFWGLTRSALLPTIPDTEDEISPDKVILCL

[4] = biological target: T2, Cereblon/Ikaros (Homo sapiens) (UniProt Q96SW2+Q13422); assay: Protac activity at CRBN/IKZF1 (unknown origin) transfected in HEK293T cells at 1 uM incubated for 24 hrs by flow cytometry analysis relative to control; format: cell-based
[5] = biological target: T2, Cereblon/Ikaros (Homo sapiens); assay: Protac activity at CRBN/IKZF1 (unknown origin) transfected in HEK293T cells at 100 nM incubated for 24 hrs by flow cytometry analysis relative to control; format: cell-based
[6] = biological target: T1, Protein cereblon/Eukaryotic peptide chain release factor GTP-binding subunit ERF3A (Homo sapiens); assay: Protac activity at CRBN/GSPT1 in human NCI-H1048 cells at 10 to 100 nM incubated for 24 hrs by Western blotting analysis; format: cell-based; settings: dose 10-100 nM
[7] = biological target: T3, Cereblon/Casein kinase I alpha (Homo sapiens) (UniProt P48729+Q96SW2); assay: Protac activity at CRBN/CK1alpha (unknown origin) transfected in HEK293T cells at 100 nM incubated for 24 hrs by flow cytometry analysis relative to control; format: cell-based
T3 sequence (P48729 2-337 limits assumed): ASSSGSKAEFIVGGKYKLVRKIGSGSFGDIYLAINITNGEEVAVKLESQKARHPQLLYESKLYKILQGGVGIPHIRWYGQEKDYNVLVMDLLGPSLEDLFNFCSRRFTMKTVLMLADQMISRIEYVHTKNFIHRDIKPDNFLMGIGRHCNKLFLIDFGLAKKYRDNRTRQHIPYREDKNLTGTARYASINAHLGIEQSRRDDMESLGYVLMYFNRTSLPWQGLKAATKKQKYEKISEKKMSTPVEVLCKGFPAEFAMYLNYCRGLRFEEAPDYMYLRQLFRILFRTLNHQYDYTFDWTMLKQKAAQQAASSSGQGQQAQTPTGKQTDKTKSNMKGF
T3 sequence (Q96SW2 whole entry partner): as the sequence (Q96SW2 whole entry, looked up) above

[8] = biological target: T3, Cereblon/Casein kinase I alpha (Homo sapiens); assay: Protac activity at CRBN/CK1alpha (unknown origin) transfected in HEK293T cells at 1 uM incubated for 24 hrs by flow cytometry analysis relative to control; format: cell-based
[9] = Metabolic stability in mouse liver microsomes assessed as intrinsic clearance preincubated with NADPH and UDPGA for 5 mins followed by compound addition and measured upto 60 mins by LC-MS/MS analysis; format: ADME, Microsome; settings: read-out: CLH
[10] = biological target: T4, Protein cereblon/Zinc finger protein Helios (Homo sapiens) (UniProt Q96SW2+Q9UKS7); assay: Protac activity at CRBN/IKZF2 (unknown origin) transfected in HEK293T cells at 100 nM incubated for 24 hrs by flow cytometry analysis relative to control; format: cell-based
T4 sequence (Q96SW2 whole entry, looked up): as above
T4 sequence (Q9UKS7 whole entry, looked up): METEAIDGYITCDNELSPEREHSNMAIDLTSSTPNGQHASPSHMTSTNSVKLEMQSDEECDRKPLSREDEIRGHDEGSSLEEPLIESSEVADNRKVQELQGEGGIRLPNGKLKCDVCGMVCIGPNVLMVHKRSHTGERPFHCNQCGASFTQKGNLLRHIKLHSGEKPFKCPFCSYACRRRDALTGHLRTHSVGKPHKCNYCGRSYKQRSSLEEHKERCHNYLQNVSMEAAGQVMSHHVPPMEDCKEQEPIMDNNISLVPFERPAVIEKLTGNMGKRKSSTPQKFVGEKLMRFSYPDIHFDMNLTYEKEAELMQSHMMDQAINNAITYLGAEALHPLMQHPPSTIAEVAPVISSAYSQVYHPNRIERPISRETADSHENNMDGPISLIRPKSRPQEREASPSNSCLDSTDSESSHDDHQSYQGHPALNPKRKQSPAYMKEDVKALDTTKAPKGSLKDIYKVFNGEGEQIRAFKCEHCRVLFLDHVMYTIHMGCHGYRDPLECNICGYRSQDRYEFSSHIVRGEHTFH

[11] = biological target: T1, Protein cereblon/Eukaryotic peptide chain release factor GTP-binding subunit ERF3A (Homo sapiens); assay: Protac activity at CRBN/GSPT1 (unknown origin) transfected in HEK293T cells at 1 uM incubated for 24 hrs by flow cytometry analysis relative to control; format: cell-based
[12] = Metabolic stability in human liver microsomes assessed as intrinsic clearance preincubated with NADPH and UDPGA for 5 mins followed by compound addition and measured upto 60 mins by LC-MS/MS analysis; format: ADME, Microsome; settings: read-out: CLH
[13] = biological target: T4, Protein cereblon/Zinc finger protein Helios (Homo sapiens); assay: Protac activity at CRBN/IKZF2 (unknown origin) transfected in HEK293T cells at 1 uM incubated for 24 hrs by flow cytometry analysis relative to control; format: cell-based
[14] = Solubility of compound in DMSO; format: physicochemical
[15] = biological target: T4, Protein cereblon/Zinc finger protein Helios (Homo sapiens); assay: Protac activity at CRBN/IKZF2 in human MOLM-13 cells at 25 uM incubated for 24 hrs by Western blotting analysis relative to control; format: cell-based
[16] = biological target: T2, Cereblon/Ikaros (Homo sapiens); assay: Protac activity at CRBN/IKZF1 in human MOLM-13 cells assessed as relative ratio at 25 uM incubated for 24 hrs by Western blotting analysis relative to DMSO; format: cell-based
[17] = biological target: T2, Cereblon/Ikaros (Homo sapiens); assay: Protac activity at CRBN/IKZF1 in human MOLM-13 cells at 25 uM incubated for 24 hrs by Western blotting analysis relative to control; format: cell-based
[18] = biological target: T4, Protein cereblon/Zinc finger protein Helios (Homo sapiens); assay: Protac activity at CRBN/IKZF2 in human MOLM-13 cells assessed as relative ratio at 25 uM incubated for 24 hrs by Western blotting analysis relative to DMSO; format: cell-based
[19] = system: OCI-Ly3; assay: Cytotoxicity against human OCILY3 cells incubated for 5 days by MTT assay; format: functional, cell-based; settings: time 5.0 day
[20] = system: A2780; assay: Cytotoxicity against human A2780 cells incubated for 5 days by MTT assay; format: functional, cell-based; settings: time 5.0 day

Compound | half-life [1] | half-life [2] | Activity [3] | Activity [5] | Activity [7] | microsomal CLint [9] | Activity [10] | microsomal CLint [12] | solubility ([14]; DMSO, read-out: solubility) | also measured
Nc1cccc2c1CN(C1CCC(=O)NC1=O)C2=O (configuration not stated) [LENALIDOMIDE] | > 6 h | > 6 h |  |  |  |  |  |  |  | 
COc1ccc2cc(C(=O)Nc3ccc4c(c3)CN(C3CCC(=O)NC3=O)C4=O)ccc2c1 (configuration not stated) | 3.13 h |  | 8% | 7% | 70% | 7.4 µL/min/mg | 90% | 362 µL/min/mg |  | Activity [4]: 9%; Activity [6]: Active; Activity ([7]; tested as the 2H-labelled form): 52%; Activity [8]: 70%; Activity ([10]; tested as the 2H-labelled form): 70%; Activity [11]: 18%; Activity [13]: 94%
COc1ccc2c(c1)C=C(C(=O)Nc1ccc3c(c1)CN(C1CCC(=O)NC1=O)C3=O)CO2 (configuration not stated) |  |  | 9% | 16% | 66% |  | 75% |  | 50 mM (≈ 22.4 mg/mL) | 
O=C1CCC(N2Cc3cc(NC(=O)c4cc5ccccc5o4)ccc3C2=O)C(=O)N1 (configuration not stated) |  |  | 2% | 13% | 62% |  | 80% |  |  | solubility [14]: 25 mM (≈ 10.1 mg/mL)
[2H]C([2H])([2H])Oc1ccc2cc(C(=O)Nc3ccc4c(c3)CN(C3CCC(=O)NC3=O)C4=O)ccc2c1 (configuration not stated) | > 4.25 h | 0.08 h |  |  |  | < 5.4 µL/min/mg |  | 290 µL/min/mg |  | 
CCOc1ccc2cc(C(=O)Nc3ccc4c(c3)CN(C3CCC(=O)NC3=O)C4=O)ccc2c1 (configuration not stated) | > 4.25 h | > 4.25 h |  |  | 71% | < 5.4 µL/min/mg | 80% | < 5.4 µL/min/mg |  | 
O=C1CCC(N2Cc3cc(NC(=O)C4=Cc5ccc(C(F)(F)F)cc5OC4)ccc3C2=O)C(=O)N1 (configuration not stated) |  |  | 3% | 8% | 65% |  | 70% |  | 50 mM (≈ 24.3 mg/mL) | 
COc1cccc2c1C=C(C(=O)Nc1ccc3c(c1)CN(C1CCC(=O)NC1=O)C3=O)CO2 (configuration not stated) |  |  | 24% | 39% | 59% |  | 75% |  | 50 mM (≈ 22.4 mg/mL) | 
Cc1ccc2c(c1)OCC(C(=O)Nc1ccc3c(c1)CN(C1CCC(=O)NC1=O)C3=O)=C2 (configuration not stated) |  |  | 14% | 9% | 64% |  | 73% |  | 50 mM (≈ 21.6 mg/mL) | 
COc1ccc2cc(C(=O)Nc3ccc4c(c3)CN(C3CCC(=O)NC3=O)C4=O)cnc2c1 (configuration not stated) | > 4.25 h | 0.338 h |  |  | 62% | < 5.4 µL/min/mg | 73% | 68.4 µL/min/mg |  | 
COc1ccc2cc(C(=O)Nc3ccc4c(c3)CN(C3CCC(=O)NC3=O)C4=O)ccc2n1 (configuration not stated) | > 4.25 h | 0.268 h |  |  | 68% | < 5.4 µL/min/mg | 89% | 108 µL/min/mg |  | 
COc1ccc2cc(C(=O)Nc3ccc4c(c3)CN(C3CCC(=O)NC3=O)C4=O)ncc2c1 (configuration not stated) | 3.48 h | 0.04 h |  |  | 61% | 6.6 µL/min/mg | 68% | 584 µL/min/mg |  | 
O=C1CCC(N2Cc3cc(NC(=O)C4=Cc5cc(Br)cc(Br)c5OC4)ccc3C2=O)C(=O)N1 (configuration not stated) |  |  | 5% | 12% | 47% |  | 49% |  | 50 mM (≈ 28.8 mg/mL) | 
CC(C)Oc1ccc2cc(C(=O)Nc3ccc4c(c3)CN(C3CCC(=O)NC3=O)C4=O)ccc2c1 (configuration not stated) | > 4.25 h | > 4.25 h |  |  | 70% | < 5.4 µL/min/mg | 81% | < 5.4 µL/min/mg |  | 
O=C1CCC(N2Cc3cc(NC(=O)c4ccc5ccccc5c4)ccc3C2=O)C(=O)N1 (configuration not stated) | > 4.25 h | > 4.25 h |  |  |  | < 5.4 µL/min/mg |  | < 5.4 µL/min/mg |  | Activity [15]: Active; Ratio [16]: 0.5; Activity [17]: inactive; Ratio [18]: 0.27
COc1ccc2c(c1)OCC(C(=O)Nc1ccc3c(c1)CN(C1CCC(=O)NC1=O)C3=O)=C2 (configuration not stated) |  |  | 9% | 4% | 60% |  | 57% |  | 50 mM (≈ 22.4 mg/mL) | 
COc1ccc2nc(C(=O)Nc3ccc4c(c3)CN(C3CCC(=O)NC3=O)C4=O)ccc2c1 (configuration not stated) | 0.398 h | 0.265 h |  |  | 69% | 57.9 µL/min/mg | 87% | 87.4 µL/min/mg |  | 
COc1cc(C(=O)O)ccc1NC(=O)[C@@H]1N[C@@H](CC(C)(C)C)[C@](C#N)(c2ccc(Cl)cc2F)[C@H]1c1cccc(Cl)c1F |  |  |  |  |  |  |  |  |  | Activity [19]: inactive; Activity [20]: inactive
CCCCOc1ccc2cc(C(=O)Nc3ccc4c(c3)CN(C3CCC(=O)NC3=O)C4=O)ccc2c1 (configuration not stated) | > 4.25 h | > 4.25 h |  |  | 70% | < 5.4 µL/min/mg | 81% | < 5.4 µL/min/mg |  | 
